Measured values taken from patent publication US20230381163A1, “DABIGATRAN COMPOSITIONS AND METHODS OF TREATING AGE-RELATED MACULAR DEGENERATION” (The United States Government As Represented By The …, priority 2022, published 2023).
Entries after “also recorded” stand apart in the source; their conditions may differ.

Key:
[1] = tested on: CTGF expression in ARPE-19 cells; assay: Thrombin-induced CTGF expression in ARPE-19 cell lysates (western blot); settings: dabigatran 10 μM, thrombin 1 U/mL
Description: Cell culture experiments: Cells. Human ARPE-19 (ATCC® CRL-2302™; American Type Culture Collection, Manassas VA) cells were cultured in DMEM cell culture media (Gibco/ThermoFisher Scientific) containing high glucose DMEM with D-glucose (4.5 g/L), L-glutamine, sodium pyruvate (110 mg/L), Penicillin and Streptomycin (1×) and 10% of FBS. Cells (<passage 10 after purchase) were expanded in T75 cell culture flasks at 37° C., in the presence of 5% CO2. Confluent cells were trypsinized with 0.05% trypsin (Gibco), and equal numbers of cells were seeded on 6-well transwell filters/plate (Costar). […] Integrity of the cell monolayer was assessed by Transepithelial resistance (TER) measurements using an EVOM volt-ohmmeter (World Precision Instruments) four weeks after plating. RPE monolayers with a stable TER repeatedly measured as ˜40-45 S2 cm 2 were used for these experiments.
Treatments. Prior to each experiment, the cell monolayer was washed with serum-free medium (SFM) and maintained in SFM for 24 hours. […] Treatments were performed on the apical side of the transwell membrane, which represents the retinal side of the RPE in vivo. Some of the cells were treated with thrombin (EMD Millipore Corp), complement components C3a, C5a (Complement Technology), thrombin agonist PAR1-AP (Sigma-Aldrich; amino acid sequence SFLLRN (SEQ ID NO: 1)), thrombin inhibitor dabigatran etexilate (Sigma-Aldrich), C3 inhibitor compstatin (R&D Systems), AP inhibitor TT30 (Alexion Therapeutics), a protease inhibitor alpha1-antitrypsin (Sigma-Aldrich), and the thrombin receptor proteinase activated receptor 1 inhibitor SCH 79797 (Sigma-Aldrich). Treatments were performed 60 min prior to the addition of thrombin. Cell culture supernatant and lysate were collected after specific time points or after 24 hrs of treatment and stored at −20° C. for later use.
Western blotting. […] Cell lysates were collected in RIPA cell lysis buffer containing 150 mM NaCl, 1.0% IGEPAL® CA-630, 0.5% sodium deoxycholate, 0.1% SDS, 50 mM Tris (pH 8.0) (Sigma-Aldrich) in presence of 1×protease inhibitor (Sigma-Aldrich). Equal amount of each samples were loaded on 4-20% Criterion™ TGX™ precast gels (Bio-Rad Laboratories, Inc.) (Annamalai, B., et al. (2020). Invest Ophthalmol Vis Sci 61, 45). Proteins were transferred to a nitrocellulose membrane and incubated in primary antibody followed by appropriate secondary antibodies coupled to peroxidase, followed by band development and detection using Clarity™ Western ECL blotting substrate (Bio-Rad Laboratories, Inc.) and chemiluminescent detection. Protein bands were scanned and densities quantified using ImageJ software. The following antibodies were used: C3a (1:1000; Complement Technology), C5a (1:1000; Abcam), connective tissue growth factor/CTGF (1:1000; Abcam), C3d anti-C3d (clone 11, 1:1000; generation of the antibody is described in (Thurman, J. M., et al. (2013). J Clin Invest 123, 2218-2230)), VEGF (1:1000, Santa Cruz Biotechnology, Inc.), β-actin (1:2000; Cell Signaling Technology) and concentrations selected based on the data sheet recommendations.
ARPE-19 cell monolayers were treated with thrombin (0.5-10 U/ml) and cell lysates were collected and analyzed for CTGF levels at 4 hrs post treatment by western blotting.

[2] = tested on: AMD diagnosis in Medicare patients; assay: MarketScan retrospective analysis of AMD diagnosis in dabigatran-exposed vs matched control Medicare patients; assay type: in vivo, human
Description: Material and methods. MarketScan analysis: Population. A total of 41,860 dabigatran-exposed and 41,860 non-exposed controls, for a total of 83,720 Medicare patients were extracted from MarketScan® data from 2010-2015 and used in the analysis. Patients with an inpatient or outpatient record with a diagnosis of AMD (wet or dry) for the baseline period were excluded from inclusion in the data set. Patients who filled at least one prescription of dabigatran during the 2011-2012 exposure period were included in the dabigatran group. The date of the first filled prescription was designated as the Index Date. […] The first patient record date in randomly selected records from 2011 or 2012 was chosen as the Index Date for control group patients. Patients with <90 days of insurance coverage in the baseline period or <120 days of coverage in the study (exposure) period were excluded from the final cohort. The exposed and control patients were matched by age, sex, state of residence, Index Date, days in baseline period, and days in study period using 1:1 propensity score mating with a greedy algorithm and a caliper distance of 0.2.
Survival and Statistical Analysis. Survival analysis was used (Schnabolk et al., 2019) to show differences in time until AMD diagnosis among dabigatran users and control subjects using the […] procedure. AMD diagnoses were identified using ICD-9 codes 362.5 (unspecified macular degeneration), 362.51 (dry AMD), and 362.52 (wet AMD). A period of ˜5 years (from Jul. 1, 2010, to Dec. 31, 2015) was used for this analysis, and preexisting AMD diagnosis was ruled out by requiring that the subjects be AMD free over the first ˜600 days (designated as baseline days or Base Days). Data on the matched control and dabigatran population were analyzed using multivariable logistic and Cox regression. Specifically, the odds of being diagnosed with AMD during the follow-up time, controlling for days of dabigatran exposure, and the proportional hazard rates of obtaining an AMD diagnosis in the dabigatran or control population as well as any baseline differences in demographics or comorbidities was compared (Charlson or Elixhouser diagnoses).
Results. Association between Dabigatran Use and AMD Risk. The patient population consisted of 83,720 Medicare patients extracted from MarketScan® data from 2010-2015 as described herein, with 41,860 dabigatran-exposed and 41,860 non-exposed controls. The controls were matched on 33 baseline variables, including demographics and clinical characteristics (Schnabolk, G., et al. (2019). Invest Ophthalmol Vis Sci 60, 3520-3526) (Table 1).

[3] = tested on: choroidal neovascularization (CNV) lesions; assay: Laser-induced CNV lesion size by OCT in mice fed dabigatran chow; assay type: in vivo, C57BL/6J mice
Description: Mouse model of choroidal neovascularization (CNV): Choroidal neovascularization. C57BL/6J mice (males and females) from the same colony, to guarantee identical microbiome ([…] al., 2016), were recruited to the study at 3 months of age. Argon laser photocoagulation (532 nm, 100 μm spot size, 0.1 s duration, 100 mW) was used to generate 4 laser spots around the optic nerve of each eye (Rohrer et al., 2009), utilizing bubble formation at the site of the laser burn as the inclusion criteria for successful Bruch's membrane rupture (Nozaki et al., 2006). Dabigatran exposure. Mice were fed standard chow fortified with dabigatran etexilate (10 […] of chow; Boehringer Ingelheim). Mice were either fed dabigatran chow during the angiogenesis period of CNV (starting 2 days prior to CNV induction through day 6 when the tissues were collected), or during the wound healing period (starting after the OCT analysis to ensure CNV growth on day 5 through day 23). Optical Coherence Tomography (OCT) analysis. OCT was used to quantify CNV lesion size on day 5 post laser treatment (Schnabolk, G., et al. (2014). Exp Eye Res 129, 18-23; Schnabolk, G., et al. (2015). Invest Ophthalmol Vis Sci; and Coughlin, B., et al. (2016). Sci Rep 6, 23794), or in weekly intervals to document recovery from fibrosis (Parsons, N., et al. (2019). Mol Immunol 108, 8-12) using an SD-OCT Bioptigen® Spectral Domain Ophthalmic Imaging System (Bioptigen Inc., Durham NC). Mice were anesthetized prior to imaging, eyes kept hydrated with normal saline, and body temperature was carefully monitored to prevent anesthesia-induced cataracts. The methods for imaging and analysis have been described (Schnabolk, G., et al. (2014). Exp Eye Res 129, 18-23; Schnabolk, G., et al. (2015). Invest Ophthalmol Vis Sci; Coughlin, B., et al. (2016). Sci Rep 6, 23794; and Parsons, N., et al. (2019). Mol Immunol 108, 8-). Based on the size of the individual pixels (1.6×1.6 μm), the lesion sizes were calculated.

[4] = tested on: C3α breakdown products C3d/C3dg and C3α′1; assay: Complement activation (C3d) in RPE/choroid of CNV mice (western blot); assay type: in vivo, mouse
Description: (§1) Pathway analysis in CNV. Based on the results in cells, an analysis in animals followed, focusing on VEGF levels in the RPE/choroid, complemented by CTGF analysis and complement activation (C3d production and binding). RPE/choroid samples were collected at the end of the angiogenesis experiment (day 6) and after the final OCT analysis in the repair experiment (day 23) and compared to naive controls (no CNV and no dabigatran treatment).
Unexpectedly, and in contrast to the cell data (FIG. 4), C3d deposition was not reduced by dabigatran.

CTGF = CTGF levels in RPE/choroid of CNV mice (western blot); assay type: in vivo, mouse; settings: end of repair period (23 days), P<0.01
Description: as §1

[5] = 1-2 years exposure to dabigatran
[6] = 2+ years exposure to dabigatran

Compound: CCCCCCOC(=O)NC(=N)c1ccc(NCc2nc3cc(C(=O)N(CCC(=O)OCC)c4ccccn4)ccc3n2C)cc1
- reduction of thrombin-induced CTGF expression [1]: 3.2 fold
- % AMD per study year [2, 5]: 3.25%
- % patients with a wet AMD diagnosis [2, 5]: 0.90%
- % patients with an AMD diagnosis [2, 5]: 10.11%
- % wet AMD per study year [2, 5]: 0.26%
- risk of AMD by exposure strata (odds ratio vs controls) ([2]; 1-2 years of dabigatran): 0.64
- % AMD per study year [2, 6]: 3.00%
- % patients with a wet AMD diagnosis [2, 6]: 1.35%
- % patients with an AMD diagnosis [2, 6]: 12.26%
- % wet AMD per study year [2, 6]: 0.29%
- risk of AMD by exposure strata (odds ratio vs controls) ([2]; 2+ years of dabigatran): 0.64
- % AMD per study year ([2]; <1 year exposure to dabigatran): 3.04%
- % patients with a wet AMD diagnosis ([2]; <1 year exposure to dabigatran): 0.75%
- % patients with an AMD diagnosis ([2]; <1 year exposure to dabigatran): 7.51%
- % wet AMD per study year ([2]; <1 year exposure to dabigatran): 0.28%
- risk of AMD by exposure strata (odds ratio vs controls) ([2]; <1 year of dabigatran): 0.52
- % AMD per study year ([2]; all dabigatran users): 3.07%
- % patients with a wet AMD diagnosis ([2]; all dabigatran users): 0.91%
- % patients with an AMD diagnosis ([2]; all dabigatran users): 9.1%
- % wet AMD per study year ([2]; all dabigatran users): 0.28%
- % patients with an AMD diagnosis ([2]; all dabigatran users, listed as Dabigatran): 9.10%
- reduction of percent AMD per study year ([2]; dabigatran vs control group): ~35%
- reduction of percent patients with a wet AMD diagnosis ([2]; dabigatran vs control group): ~60%
- hazard ratio, time to first recorded diagnosis of unspecified AMD ([2]; dabigatran vs matched controls, P<0.0001): 0.63
- Days to AMD, Mean ([2]; dabigatran-exposed subjects, n 3810): 562 days
- Wet Days, Mean ([2]; dabigatran-exposed subjects, n 38399): 1047 days
- Dry Days, Mean ([2]; dabigatran-exposed subjects, n 41511): 1011 days
- AMD Days, Mean ([2]; dabigatran-exposed subjects, n 41860): 1007 days
- odds ratio (OR) of AMD ([2]; multivariable logistic regression controlling for age, sex, days in study, CI 0.55-0.61): 0.58
- reduction of CNV lesion sizes ([3]; dabigatran from 2 days prior to CNV induction through angiogenesis phase, OCT day 5, insignificant, P=0.2): ~15%
- CNV lesion size at final time point ([3]; dabigatran from day 5 through repair phase, day 23, P<0.02): significantly smaller lesions
- CNV lesion response over time (repair) ([3]; repair phase days 5-23, repeated measure ANOVA P<0.0001): significant effect of treatment; also recorded: acceleration of repair
- effect on C3d deposition ([4]; CNV animals, repair phase): not reduced
- effect on C3d/C3dg and C3α′1 levels in RPE/choroid ([4]; end of repair period (23 days), P<0.05): further elevated
- effect on CTGF levels in RPE/choroid (CTGF): significantly reduced
